In PubChem BioAssay (NCI):
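All cell lines were grown in 96-well plates and treated with compound for 48 hours. GI50: concentration for 50% inhibition of growth. At the TGI there is no net growth.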

Key:
Test in all cases: DTP human tumour cell line panel, 48 h
[1] = tested on: UO-31 renal
[2] = tested on: MCF7 breast
[3] = tested on: SF-268 CNS
[4] = tested on: HCT-116 colon
[5] = tested on: HCC-2998 colon
[6] = tested on: PC-3 prostate
[7] = tested on: HT29 colon
[8] = tested on: NCI-H226 lung
[9] = tested on: KM12 colon
[10] = tested on: SF-295 CNS

## O=c1ncc(-c2ccc(C(F)(F)F)cc2)c(NC2CCCCCC2)[nH]1
[1]
  GI50: 14.2 µM
  TGI: 38.9 µM
[2]
  GI50: 16.2 µM
  TGI: 56.4 µM
[3]
  GI50: 18.4 µM
  TGI: 36.5 µM
[4]
  GI50: 16.8 µM
  TGI: 33.6 µM
[5]
  GI50: 20000 nM
  TGI: 35.9 µM
[6]
  GI50: 19 µM
  TGI: 54.9 µM
[7]
  GI50: 21.5 µM
  TGI: 39 µM
[8]
  GI50: 19.4 µM
  TGI: 46 µM
[9]
  GI50: 19900 nM
  TGI: 44.3 µM
[10]
  GI50: 17 µM
  TGI: 34 µM

## COc1cc2c(c(OC)c1OC)-c1ccc([O-])c(=O)cc1[C@@H](NC(C)=O)CC2.COc1cc2c(c(OC)c1OC)-c1ccc([O-])c(=O)cc1[C@@H](NC(C)=O)CC2.[Cu+2]
[1]
  GI50: 4.1 µM
  TGI: 41.9 µM
[2]
  GI50: 3.33 µM
  TGI: > 100 µM
[3]
  GI50: 3.89 µM
  TGI: 22.7 µM
[4]
  GI50: 3.2 µM
  TGI: > 100 µM
[5]
  GI50: 2580 nM
  TGI: 7.2 µM
[6]
  GI50: 3.63 µM
  TGI: > 100 µM
[7]
  GI50: 3.43 µM
  TGI: > 100 µM
[8]
  GI50: 5.13 µM
  TGI: > 100 µM
[9]
  GI50: 1870 nM
  TGI: 5.52 µM
[10]
  GI50: 3.1 µM
  TGI: > 100 µM

## COc1ccc(-c2cc(-c3ccc(Nc4nc(Nc5ccc(Cl)cc5)nc(Nc5ccc(Cl)cc5)n4)cc3)no2)cc1
[1]
  GI50: 5.36 µM
  TGI: 35.2 µM
[2]
  GI50: 7.86 µM
  TGI: 47.5 µM
[3]
  GI50: 9.3 µM
  TGI: 38.2 µM
[4]
  GI50: 4.33 µM
  TGI: 17.1 µM
[5]
  GI50: 2370 nM
  TGI: 8.25 µM
[6]
  GI50: 3.65 µM
  TGI: 25.5 µM
[7]
  GI50: 15.1 µM
  TGI: 59.9 µM
[8]
  GI50: 19.8 µM
  TGI: 49.2 µM
[9]
  GI50: 7830 nM
  TGI: 30.3 µM
[10]
  GI50: 11.4 µM
  TGI: 39.5 µM

## CCCCCCCCCCCCCCCCC1=CC(=O)C=C(OC)C1=O
[1]
  TGI: > 100 µM
[2]
  TGI: > 100 µM
[3]
  TGI: > 100 µM
[4]
  TGI: > 100 µM
[5]
  TGI: > 100 µM
[6]
  TGI: > 100 µM
[7]
  TGI: > 100 µM
[8]
  TGI: > 100 µM
[9]
  TGI: > 100 µM
[10]
  TGI: > 100 µM

## Nc1nc(N)c2nc(CNc3ccc(C(=O)CC(CCC(=O)O)C(=O)O)cc3)cnc2n1 (centres undefined)
[1]
  GI50: 0.168 µM
  TGI: > 100 µM
[2]
  GI50: 0.0714 µM
  TGI: > 100 µM
[3]
  GI50: 0.197 µM
  TGI: > 100 µM
[4]
  GI50: < 0.0185 µM
  TGI: > 100 µM
[5]
  GI50: 179 nM
  TGI: > 96.2 µM
[6]
  TGI: > 100 µM
[7]
  GI50: 0.0417 µM
  TGI: > 100 µM
[8]
  GI50: 1.07 µM
  TGI: > 100 µM
[9]
  GI50: 232 nM
  TGI: > 100 µM
[10]
  GI50: 0.19 µM
  TGI: > 100 µM

## COc1ccc(-c2coc3ncnc(N)c23)cc1
[1]
  GI50: > 25 µM
  TGI: > 25 µM
[2]
  GI50: > 25 µM
  TGI: > 25 µM
[3]
  GI50: > 25 µM
  TGI: > 25 µM
[4]
  GI50: > 25 µM
  TGI: > 25 µM
[5]
  GI50: > 25000 nM
  TGI: > 25 µM
[6]
  GI50: > 25 µM
  TGI: > 25 µM
[7]
  GI50: > 25 µM
  TGI: > 25 µM
[8]
  GI50: > 25 µM
  TGI: > 25 µM
[9]
  GI50: > 25000 nM
  TGI: > 25 µM
[10]
  GI50: > 25 µM
  TGI: > 25 µM

## O=c1oc2ccc(Cl)cc2c(=O)n1-c1ccc(Cl)cc1F
[1]
  GI50: 0.188 µM
  TGI: 1.62 µM
[2]
  GI50: 0.593 µM
  TGI: 23.8 µM
[3]
  GI50: 0.419 µM
  TGI: 7.07 µM
[4]
  GI50: 0.442 µM
  TGI: 1.7 µM
[5]
  GI50: 2360 nM
  TGI: 8.09 µM
[6]
  GI50: 0.812 µM
  TGI: 5.04 µM
[7]
  GI50: 3.33 µM
  TGI: > 33.5 µM
[8]
  GI50: 0.576 µM
  TGI: 3.3 µM
[9]
  GI50: 1520 nM
  TGI: 4.5 µM
[10]
  GI50: 0.856 µM
  TGI: 2.43 µM

## COc1cc(N2CCC(N3CCN(C)CC3)CC2)ccc1Nc1ncc(Cl)c(Nc2ccccc2P(C)(C)=O)n1
[1]
  GI50: 0.734 µM
  TGI: 2.7 µM
[2]
  GI50: 0.414 µM
  TGI: > 100 µM
[3]
  GI50: 1.34 µM
  TGI: 14 µM
[4]
  GI50: 1.09 µM
  TGI: 13.3 µM
[5]
  GI50: 3990 nM
  TGI: > 100 µM
[6]
  GI50: 4.19 µM
  TGI: > 100 µM
[7]
  GI50: 0.204 µM
  TGI: 4.81 µM
[8]
  GI50: 0.417 µM
  TGI: 5.21 µM
[9]
  GI50: 2690 nM
  TGI: > 100 µM
[10]
  GI50: 2.85 µM
  TGI: > 100 µM

## C=C1C(=O)O[C@@H]2[C@H]1CC[C@H](C)[C@]1(O)CCC(=O)[C@@]21C
[1]
  TGI: 4.76 µM
[2]
  TGI: > 10 µM
[3]
  TGI: > 10 µM
[4]
  TGI: > 10 µM
[5]
  TGI: > 10 µM
[6]
  TGI: > 10 µM
[7]
  TGI: > 10 µM
[8]
  TGI: > 10 µM
[9]
  TGI: > 10 µM
[10]
  TGI: > 10 µM
